Measured values as given in patent US4873253A, “Phenylalanine derivative and proteinase inhibitor” (Okamoto; Shosuke, priority 1987, dated 1989).
Structures can show the parent of a compound that is named as a salt. Where two headings read alike, the source gives them in different places.

Experiments:
human plasmin [1] = biological target: T1, human plasmin (Homo sapiens, UniProt P00747); test: Antiplasmin activity: inhibition of S-2251 decomposition; assay type: biochemical; conditions: Table 2; substrate S-2251, pH 7.4, 37° C.
Description: An inhibitor sample is dissolved in a 0.05 M Tris-hydrochloric acid buffer solution (pH=7.4) to make the total volume to 400 μl. […] Then, 50 μl of a 0.2 casein unit/ml human plasmin is added and the mixture is incubated at a temperature of 37° C. for 4 minutes. Thereafter, the reaction is stopped by adding 50 μl of 50% acetic acid.
Thus, the concentration I50 (μmol) of the inhibitor sample, at which the absorbance is one half (i.e., 1/2) of that obtained in the absence of the inhibitor, is determined.

human plasmin [2] = biological target: T1, human plasmin; test: Antiplasmin activity: inhibition of fibrin decomposition; assay type: biochemical; conditions: Table 2, pH 7.4, 37° C., read-out: Plasmin Fibrin I50 (concentration doubling fibrin dissolution time)
Description: (i) Determination of inhibition activity for fibrin decomposition
An inhibitor sample is dissolved in a 0.18 M borate-physiological salt buffer solution (pH=7.4) to make the total volume to 600 μl. To this buffer solution, 200 μl of a 0.2% bovine fibrinogen, 100 μl of a 0.3 casein unit/ml human plasmin solution, and 100 μl of a 50 unit/ml bovine thrombin solution, all dissolved in the above-mentioned buffer, are added at a temperature of 37° C. in a constant temperature bath. Then, the dissolution time of the fibrin mass formed above is determined.

bovine thrombin = biological target: T2, bovine thrombin (Bos taurus, UniProt P00735); test: Antithrombin activity: inhibition of fibrin formation (fibrinogen); assay type: biochemical
T2 construct: a 0.2 unit/ml bovine thrombin solution
Description: (i) Determination of inhibition activity against fibrin formation
An inhibitor sample is dissolved in a 0.18 M borate-physiological salt buffer solution (pH= 7.4) to make the total volume to 500 μl. […] Thus, a coagulation time is determined. The inhibitor concentration I50 (μmol), at which the coagulation time obtained in the absence of the inhibitor is extended twice, is determined.

bovine trypsin = biological target: T3, bovine trypsin (Bos taurus, UniProt P00760); test: Antitrypsin activity: inhibition of S-2238 decomposition; assay type: biochemical; conditions: Table 2; substrate S-2238, pH 8.1, 37° C.; read-out: Trypsin S-2238 I50
T3 sequence (P00760 24-246): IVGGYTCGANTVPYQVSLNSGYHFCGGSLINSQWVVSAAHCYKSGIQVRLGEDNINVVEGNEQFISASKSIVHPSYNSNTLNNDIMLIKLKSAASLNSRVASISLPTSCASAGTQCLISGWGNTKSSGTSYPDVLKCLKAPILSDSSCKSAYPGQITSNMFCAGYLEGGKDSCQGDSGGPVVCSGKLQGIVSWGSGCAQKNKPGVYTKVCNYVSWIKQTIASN
Description: Determination of inhibition activity against S-2238 decomposition
An inhibitor sample is dissolved in a 0.05 M Tris-imidazole buffer solution (pH=8.1) and 125 μl of a 1 mM S-2238 solution is added to make the total volume to 1.20 ml. The mixture is incubated at a temperature of 37° C. for 5 minutes in a constant temperature bath. To this mixture, 0.05 ml of bovine trypsin is added and the absorbance, at 405 nm, of the p-nitroaniline formed per minute is determined at a temperature of 37° C. by using the so-called initial velocity method. Thus, the concentration I50 (μmol) of a inhibitor sample, at which the absorbance is one half (i.e., 1/2) of that obtained in the absence of the inhibitor sample, is determined.

human plasma kallikrein = human plasma kallikrein (Homo sapiens, UniProt P03952); test: Anti-plasma kallikrein activity: inhibition of S-2302 decomposition; assay type: biochemical; conditions: Table 2; substrate S-2302, pH 7.8, 37° C.; read-out: Plasma Kallikrein S-2302 I50
Description: Determination of inhibition activity for S-2302 decomposition
(§1) An inhibitor sample is dissolved in a 0.05 M Tris-hydrochloric acid buffer solution (pH=7.8) to make the total volume to 400 μl. To this solution, 50 μl of a 2 mM S-2302 solution is added and the mixture is incubated at a temperature of 37° C. for 5 minutes in a constant temperature bath. Then, 50 μl of a 0.12 unit/ml human plasma kallikrein is added and the mixture is incubated at a temperature of 37° C. for 5 minutes. Thereafter, 50 μl of 50% acetic acid is added to terminate the reaction. The absorbance of the p-nitroaniline formed in the reaction mixture is measured at 405 nm. Thus, the concentration I50 (μmol) of the inhibitor sample, at which the absorbance is one half (i.e., 1/2) of that obtained in the absence of the inhibitor sample, is determined.

human urokinase = human urokinase (Homo sapiens, UniProt P00749); test: biochemical; conditions: Table 2; substrate S-2444, pH 8.8, 37° C.; read-out: Urokinase S-2444 I50
Description: Determination of inhibition activity for S-2444 decomposition
as §1, with “solution (pH=8.8)” for “solution (pH=7.8)”, “a 1” for “a 2”, “mM S-2444” for “mM S-2302”, “a 500” for “a 0.12”, “human urokinase” for “human plasma kallikrein”

[3] = Table 2, bovine fibrinogen, pH 7.4, 37° C., read-out: Thrombin Fibrinogen I50 (concentration doubling coagulation time)

T1 sequence (P00747 581-810 limits assumed): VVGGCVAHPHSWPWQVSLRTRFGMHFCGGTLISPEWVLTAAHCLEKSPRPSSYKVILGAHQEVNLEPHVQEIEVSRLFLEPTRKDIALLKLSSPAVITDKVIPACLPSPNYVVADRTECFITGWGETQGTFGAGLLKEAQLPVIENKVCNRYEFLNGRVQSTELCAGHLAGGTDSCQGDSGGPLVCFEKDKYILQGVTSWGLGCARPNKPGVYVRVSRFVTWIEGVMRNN
T1 sequence (P00747 97-580 limits assumed): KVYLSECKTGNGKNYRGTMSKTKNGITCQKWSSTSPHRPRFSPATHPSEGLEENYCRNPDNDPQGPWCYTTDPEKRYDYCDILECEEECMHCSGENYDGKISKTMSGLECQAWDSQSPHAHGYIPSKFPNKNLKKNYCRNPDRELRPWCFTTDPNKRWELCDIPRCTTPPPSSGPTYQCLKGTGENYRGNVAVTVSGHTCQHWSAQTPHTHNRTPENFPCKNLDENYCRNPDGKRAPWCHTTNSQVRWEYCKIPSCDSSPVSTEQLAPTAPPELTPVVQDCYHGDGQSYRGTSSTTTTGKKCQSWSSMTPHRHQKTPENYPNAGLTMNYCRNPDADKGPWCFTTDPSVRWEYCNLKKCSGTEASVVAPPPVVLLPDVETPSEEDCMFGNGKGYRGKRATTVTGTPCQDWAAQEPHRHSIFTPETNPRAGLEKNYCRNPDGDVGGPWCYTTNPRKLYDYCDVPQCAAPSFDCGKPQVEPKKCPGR
human plasma kallikrein, sequence (P03952 391-638 limits assumed): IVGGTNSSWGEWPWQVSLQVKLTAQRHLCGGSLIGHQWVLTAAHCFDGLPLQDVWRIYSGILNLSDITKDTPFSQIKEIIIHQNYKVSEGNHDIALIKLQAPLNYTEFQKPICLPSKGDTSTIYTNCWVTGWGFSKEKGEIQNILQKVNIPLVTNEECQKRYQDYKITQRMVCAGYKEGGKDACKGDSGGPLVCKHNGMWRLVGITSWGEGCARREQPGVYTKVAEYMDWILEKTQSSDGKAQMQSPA
human plasma kallikrein, sequence (P03952 20-390 limits assumed): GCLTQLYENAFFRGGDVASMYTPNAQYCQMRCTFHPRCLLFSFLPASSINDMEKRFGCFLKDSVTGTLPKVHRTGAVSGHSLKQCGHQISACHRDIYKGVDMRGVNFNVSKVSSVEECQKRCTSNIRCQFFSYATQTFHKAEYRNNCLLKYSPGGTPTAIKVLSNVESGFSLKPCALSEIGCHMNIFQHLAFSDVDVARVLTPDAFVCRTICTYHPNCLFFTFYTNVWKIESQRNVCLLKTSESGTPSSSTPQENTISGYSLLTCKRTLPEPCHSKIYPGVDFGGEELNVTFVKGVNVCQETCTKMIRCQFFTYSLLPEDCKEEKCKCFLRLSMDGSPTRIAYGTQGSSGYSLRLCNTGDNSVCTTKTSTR

IC50 (human plasmin [1]) | IC50 (human plasmin [2]) | IC50 (bovine thrombin; [3]) | IC50 (bovine trypsin) | IC50 (human plasma kallikrein) | IC50 (human urokinase) | IC50 (bovine thrombin) | SMILES
22 µM | 12 µM | > 100 µM | 2.5 µM | 8.7 µM | 38 µM | – | N=C(N)c1ccc(NC(=O)C(Cc2cccc(Oc3ccccc3)c2)NC(=O)[C@H]2CC[C@H](CN)CC2)cc1 (mixture of isomers) [Compound 5, N-(trans-4-aminomethylcyclohexylcarbonyl)-3-phenoxy-DL-phenylalanine-4-amidinoanilide dihydrochloride]
– | – | > 125 µM | > 150 µM | > 250 µM | > 250 µM | – | NC[C@H]1CC[C@H](C(=O)NC(Cc2cccc(Oc3ccccc3)c2)C(=O)Nc2ncccc2C(=O)O)CC1 (mixture of isomers) [Compound 10, N-(trans-4-aminomethylcyclohexylcarbonyl)-3-phenoxy-DL-phenylalanine 2-nicotinylamide dihydrobromide]
940 µM | 340 µM | > 500 µM | 100 µM | 340 µM | > 500 µM | – | COCCCNC(=O)C(Cc1cccc(Oc2ccccc2)c1)NC(=O)[C@H]1CC[C@H](CN)CC1 (mixture of isomers) [Compound 14, N-(trans-4-amnomethylcyclohexylcarboonyl)-3-phenoxy-DL-phenylalanine 3-methoxypropylamide hydrochloride]
320 µM | 150 µM | – | > 150 µM | > 400 µM | > 1000 µM | > 200 µM | NC[C@H]1CC[C@H](C(=O)NC(Cc2cccc(Oc3ccccc3)c2)C(N)=O)CC1 (mixture of isomers) [Compound 21, N-(trans-4-aminomethylcyclohexylcarbonyl)-3-phenoxy-DL-phenylalanine amide hydrochloride]
1000 µM | 130 µM | > 1000 µM | > 150 µM | 55 µM | > 1000 µM | – | NC[C@H]1CC[C@H](C(=O)NC(Cc2cccc(Oc3ccccc3)c2)C(=O)Nc2ccncn2)CC1 (mixture of isomers) [Compound 12, N-(trans-4-aminomethylcyclohexylcarbonyl)-3-phenoxy-DL-phenylalanine 4-pyrimidylamide dihydrochloride]
> 1000 µM | > 500 µM | > 500 µM | > 150 µM | > 500 µM | – | – | NC[C@H]1CC[C@H](C(=O)NC(Cc2cccc(OCc3ccccc3)c2)C(=O)Nc2cccnc2)CC1 (mixture of isomers) [Compound 22, N-(trans-4-aminomethylcyclohexylcarbonyl)-3-benzyloxy-DL-phenylalanine 3-pyridylamide dihydrochloride]
– | – | > 1000 µM | 15 µM | 2 µM | – | – | NC[C@H]1CC[C@H](C(=O)NC(Cc2cccc(Oc3ccccc3)c2)C(=O)Nc2cccnc2)CC1 (stereo partly drawn) [Compound 7]
610 µM | 220 µM | – | 68 µM | 190 µM | > 400 µM | – | NC[C@H]1CC[C@H](C(=O)NC(Cc2cccc(Oc3ccccc3)c2)C(=O)Nc2ncc[nH]2)CC1 (stereo partly drawn) [Compound 11]
– | – | > 100 µM | > 150 µM | > 200 µM | > 200 µM | – | NC[C@H]1CC[C@H](C(=O)NC(Cc2cccc(Oc3ccccc3)c2)C(=O)Nc2nnn[nH]2)CC1 (stereo partly drawn) [Compound 13]

Second part, the compound before the results:

SMILES | IC50 (human plasmin [1]) | IC50 (human plasmin [2]) | IC50 (bovine thrombin; [3]) | IC50 (bovine trypsin) | IC50 (human plasma kallikrein) | IC50 (human urokinase) | IC50 (bovine thrombin)
NC[C@H]1CC[C@H](C(=O)NC(Cc2cccc(C(F)(F)F)c2)C(=O)N2CCOCC2)CC1 (mixture of isomers) [Compound 29, N-(trans-4-aminomethylcyclohexylcarbonyl)-3-trifluoromethyl-DL-phenylalanine morpholinoamide hydrochloride] | > 1000 µM | > 1000 µM | – | > 150 µM | > 1000 µM | > 1000 µM | > 1000 µM
CCOC(=O)c1ccccc1NC(=O)C(Cc1cccc(Oc2ccccc2)c1)NC(=O)[C@H]1CC[C@H](CN)CC1 (mixture of isomers) [Compound 4, N-(trans-4-aminomethylcyclohexylcarbonyl)-3-phenoxy-DL-phenylalanine 2-ethoxycarbonylanilide hydrochloride] | > 100 µM | – | – | > 150 µM | > 100 µM | > 200 µM | > 50 µM
COCCCNC(=O)C(Cc1cccc(Oc2ccc(Br)cn2)c1)NC(=O)[C@H]1CC[C@H](CN)CC1 (mixture of isomers) [Compound 25, N-(trans-4-aminomethylcyclohexylcarbonyl)-3-(5-bromo-2-pyridyloxy)-DL-phenylalanine 3-methoxypropylamide hydrochloride] | 490 µM | 450 µM | > 1000 µM | > 150 µM | 500 µM | > 1000 µM | –
CC(=O)c1ccc(NC(=O)C(Cc2cccc(Oc3ccccc3)c2)NC(=O)[C@H]2CC[C@H](CNC(=N)N)CC2)cc1 (mixture of isomers) [Compound 30, N-(trans-4-guanidinomethylcyclohexylcarbonyl)-3-phenoxy-DL-phenylalanine 4-acetylanilide methane sulfonate] | > 20 µM | > 50 µM | – | > 150 µM | > 10 µM | – | –
CCOC(=O)C1CCN(C(=O)C(Cc2cccc(Oc3ccccc3)c2)NC(=O)c2ccc(NC(=N)N)cc2)CC1 (racemic) [Compound 34, N-(4-guanidinobenzoyl)-3-phenoxy-DL-phenylalanine 4-ethoxycarbonyl piperidinoamide methane sulfonate] | – | – | > 50 µM | > 150 µM | 270 µM | > 200 µM | –
N=C(N)Nc1ccc(C(=O)NC(Cc2cccc(Oc3ccccc3)c2)C(=O)N2CCC(C(=O)O)CC2)cc1 (racemic) [Compound 35, N-(4-guanidinobenzoyl)-3-phenoxy-DL-phenylalanine 4-hydroxycarbonyl piperidinoamide methane sulfonate] | > 500 µM | > 200 µM | – | 240 µM | > 500 µM | – | –
N=C(N)Nc1ccc(C(=O)NC(Cc2cccc(Oc3ccccc3)c2)C(=O)Nc2ccc(CC(=O)O)cc2)cc1 (racemic) [Compound 36, N-(4-guanidinobenzoyl)-3-phenoxy-DL-phenylalanine 4-hydroxycarbonylmethylanilide hydrochloride] | 25 µM | > 25 µM | – | 17 µM | 1.9 µM | – | –
